Measurements taken from US9249131B2, “Modulators of ATP-binding cassette transporters” (Vertex Pharmaceuticals Incorporated, priority 2003, dated 2016).

Target: T1, ΔF508-CFTR (Homo sapiens, UniProt P13569, DEL508-508)
T1 construct: expressed in transfected cells; host or cells: NIH3T3 mouse fibroblasts stably expressing ΔF508-CFTR for the optical, whole-cell and single-channel assays; Fisher rat epithelial (FRT) cells for Ussing chamber follow-up
Assay: Assays for ΔF508-CFTR correction and potentiator properties (membrane potential optical and electrophysiological methods)
Type: cell-based
Details: CFTR modulation; for % Activity: % Efficacy; for EC50: tested using the above methods
Description: Assays for Detecting and Measuring ΔF508-CFTR Correction and Potentiator Properties of Compounds
A) Membrane Potential Optical Methods for Assaying ΔF508-CFTR Modulation Properties of Compounds
The optical membrane potential assay utilized voltage-sensitive FRET sensors described by Gonzalez and Tsien (See, Gonzales, J. E. and R. Y. Tsien (1995) “Voltage sensing by fluorescence resonance energy transfer in single cells” Biophys J 69 (4): 1272-80, and Gonzalez, J. E. and R. Y. Tsien (1997) “Improved indicators of cell membrane potential that use fluorescence resonance energy transfer” Chem Biol 4 (4): 269-77) in combination with instrumentation for measuring fluorescence changes such as the Voltage/Ion Probe Reader (VIPR) (See, Gonzalez, J. E., K. Oades, et al. (1999) “Cell-based assays and instrumentation for screening ion-channel targets” Drug Discov Today 4 (9): 431-439).
These voltage sensitive assays are based on the change in fluorescence resonant energy transfer (FRET) between the membrane-soluble, voltage-sensitive dye, DiSBAC2 (3), and a fluorescent phospholipid, CC2-DMPE, which is attached to the outer leaflet of the plasma membrane and acts as a FRET donor. Changes in membrane potential (Vm) cause the negatively charged DiSBAC2(3) to redistribute across the plasma membrane and the amount of energy transfer from CC2-DMPE changes accordingly. The changes in fluorescence emission were monitored using VIPR™ II, which is an integrated liquid handler and fluorescent detector designed to conduct cell-based screens in 96- or 384-well microtiter plates.
To identify small molecules that correct the trafficking defect associated with ΔF508-CFTR; a single-addition HTS assay format was developed. The cells were incubated in serum-free medium for 16 hrs at 37° C. in the presence or absence (negative control) of test compound. As a positive control, cells plated in 384-well plates were incubated for 16 hrs at 27° C. to “temperature-correct” ΔF508-CFTR. The cells were subsequently rinsed 3× with Krebs Ringers solution and loaded with the voltage-sensitive dyes. To activate ΔF508-CFTR, […] and the CFTR potentiator, genistein ([…]), were added along with Cl^−-free medium to each well. The addition of Cl^−-free medium promoted Cl^− efflux in response to ΔF508-CFTR activation and the resulting membrane depolarization was optically monitored using the FRET-based voltage-sensor dyes.
To identify potentiators of ΔF508-CFTR, a double-addition HTS assay format was developed. During the first addition, a Cl^−-free medium with or without test compound was added to each well. After 22 sec, a second addition of Cl^−-free medium containing 2-10 µM forskolin was added to activate ΔF508-CFTR. The extracellular Cl^− concentration following both additions was 28 mM, which promoted Cl^− efflux in response to ΔF508-CFTR activation and the resulting membrane depolarization was optically monitored using the FRET-based voltage-sensor dyes.
• Bath Solution #1: (in mM) NaCl 160, KCl 4.5, CaCl2 2, MgCl2 1, HEPES 10, pH 7.4 with NaOH. • Chloride-free bath solution: Chloride salts in Bath Solution #1 are substituted with gluconate salts. • CC2-DMPE: Prepared as a 10 mM stock solution in DMSO and stored at −20° C. • DiSBAC2(3): Prepared as a 10 mM stock in DMSO and stored at −20° C. Cell Culture
NIH3T3 mouse fibroblasts stably expressing ΔF508-CFTR are used for optical measurements of membrane potential. The cells are maintained at 37° C. in 5% CO2 and 90% humidity in Dulbecco's modified Eagle's medium supplemented with 2 mM glutamine, 10% fetal bovine serum, 1×NEAA, β-ME, 1×pen/strep, and 25 mM HEPES in 175 cm^2 culture flasks. For all optical assays, the cells were seeded at 30,000/well in 384-well matrigel-coated plates and cultured for 2 hrs at 37° C. before culturing at 27° C. for 24 hrs. for the potentiator assay. For the correction assays, the cells are cultured at 27° C. or 37° C. with and without compounds for 16-24 hours.

T1 sequence (P13569 with tags, fused parts or gaps DEL508-508): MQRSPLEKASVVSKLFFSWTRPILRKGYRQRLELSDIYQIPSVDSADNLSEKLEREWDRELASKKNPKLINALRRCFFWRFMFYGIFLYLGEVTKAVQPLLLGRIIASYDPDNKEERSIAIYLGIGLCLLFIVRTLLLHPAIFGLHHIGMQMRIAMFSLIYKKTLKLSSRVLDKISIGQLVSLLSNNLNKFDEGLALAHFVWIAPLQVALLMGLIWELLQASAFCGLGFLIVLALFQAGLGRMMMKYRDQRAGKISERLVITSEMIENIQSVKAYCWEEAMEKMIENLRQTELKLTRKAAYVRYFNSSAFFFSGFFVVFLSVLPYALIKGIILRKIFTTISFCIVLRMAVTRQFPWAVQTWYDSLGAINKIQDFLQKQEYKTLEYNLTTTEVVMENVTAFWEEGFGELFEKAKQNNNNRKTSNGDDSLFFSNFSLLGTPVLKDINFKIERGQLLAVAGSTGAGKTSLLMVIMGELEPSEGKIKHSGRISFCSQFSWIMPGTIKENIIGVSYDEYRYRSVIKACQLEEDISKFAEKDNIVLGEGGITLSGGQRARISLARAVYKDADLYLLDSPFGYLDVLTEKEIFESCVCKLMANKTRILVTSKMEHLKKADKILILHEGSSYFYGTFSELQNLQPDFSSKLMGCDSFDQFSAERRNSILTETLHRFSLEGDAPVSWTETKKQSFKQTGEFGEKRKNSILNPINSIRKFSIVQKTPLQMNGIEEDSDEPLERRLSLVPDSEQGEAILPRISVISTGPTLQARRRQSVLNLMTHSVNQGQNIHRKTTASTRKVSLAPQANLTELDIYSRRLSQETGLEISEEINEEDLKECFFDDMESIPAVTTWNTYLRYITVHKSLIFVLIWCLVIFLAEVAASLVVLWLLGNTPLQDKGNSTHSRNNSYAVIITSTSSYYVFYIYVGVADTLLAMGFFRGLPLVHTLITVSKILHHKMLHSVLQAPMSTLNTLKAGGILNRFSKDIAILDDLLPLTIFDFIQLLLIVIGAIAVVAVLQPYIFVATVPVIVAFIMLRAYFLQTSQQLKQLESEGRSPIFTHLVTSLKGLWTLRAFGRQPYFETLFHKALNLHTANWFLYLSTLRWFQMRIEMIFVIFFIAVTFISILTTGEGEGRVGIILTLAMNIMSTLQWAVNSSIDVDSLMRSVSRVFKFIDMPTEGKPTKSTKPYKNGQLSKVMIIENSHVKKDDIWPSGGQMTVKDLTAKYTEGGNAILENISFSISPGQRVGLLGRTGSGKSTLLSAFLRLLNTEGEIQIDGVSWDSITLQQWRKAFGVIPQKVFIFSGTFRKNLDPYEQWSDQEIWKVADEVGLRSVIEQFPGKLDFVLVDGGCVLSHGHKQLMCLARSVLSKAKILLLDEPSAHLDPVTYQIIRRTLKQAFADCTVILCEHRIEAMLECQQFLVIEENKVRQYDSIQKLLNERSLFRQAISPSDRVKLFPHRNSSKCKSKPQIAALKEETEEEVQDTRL

## O=C(Nc1ncc(Cc2ccccc2Cl)s1)C(c1ccc(Cl)cc1)c1ccc(Cl)cc1 [compound 95]
  % Activity: ++ (“++” means between 25% to 100%)
  EC50: < 10 µM

## CCC(C(=O)Nc1ncc(Cc2ccccc2)s1)c1ccccc1 (stereo not shown) [compound 96]
  % Activity: ++ (“++” means between 25% to 100%)
  EC50: 10 to 25 µM

## CCC(C(=O)Nc1ncc(Cc2ccccc2Cl)s1)c1ccccc1 (stereo not shown) [compound 97]
  % Activity: +++ (“+++” means >100%)
  EC50: < 10 µM

## CCC(C)C(C(=O)Nc1ncc(Cc2ccccc2)s1)c1ccccc1 (stereo not shown) [compound 98]
  % Activity: ++ (“++” means between 25% to 100%)
  EC50: < 10 µM

## CCC(C)C(C(=O)Nc1ncc(Cc2ccccc2Cl)s1)c1ccccc1 (stereo not shown) [compound 99]
  % Activity: +++ (“+++” means >100%)
  EC50: < 10 µM

## CCC(C)C(C(=O)Nc1ncc(Cc2ccccc2)o1)c1ccccc1 (stereo not shown) [compound 100]
  % Activity: ++ (“++” means between 25% to 100%)
  EC50: 10 to 25 µM

## O=C(Nc1ncc(Cc2ccccc2)s1)C(c1ccccc1)C1CCCC1 (stereo not shown) [compound 101]
  % Activity: ++ (“++” means between 25% to 100%)
  EC50: < 10 µM

## O=C(Nc1ncc(Cc2ccccc2Cl)s1)C(c1ccccc1)C1CCCC1 (stereo not shown) [compound 102]
  % Activity: +++ (“+++” means >100%)
  EC50: < 10 µM

## CC(C)C(C(=O)Nc1ncc(Cc2ccccc2Cl)s1)c1ccccc1 (stereo not shown) [compound 103]
  % Activity: +++ (“+++” means >100%)
  EC50: < 10 µM

## O=C(Nc1nc(-c2ccccc2)c(-c2ccccc2)s1)c1ccccc1Cl [compound 104]
  % Activity: ++ (“++” means between 25% to 100%)
  EC50: < 10 µM

## COc1cccc(C(=O)Nc2nc(-c3ccccc3)c(-c3ccccc3)s2)c1 [compound 105]
  % Activity: +++ (“+++” means >100%)
  EC50: < 10 µM

## O=C(Nc1nc(-c2ccccc2)c(-c2ccccc2)s1)c1cccc(Cl)c1 [compound 106]
  % Activity: ++ (“++” means between 25% to 100%)
  EC50: < 10 µM

## O=C(Cc1ccccc1)Nc1nc(-c2ccccc2)c(-c2ccccc2)s1 [compound 107]
  % Activity: +++ (“+++” means >100%)
  EC50: < 10 µM

## CCCC(=O)Nc1nc(-c2ccccc2)c(-c2ccccc2)s1 [compound 108]
  % Activity: ++ (“++” means between 25% to 100%)
  EC50: < 10 µM

## CC(C)C(=O)Nc1nc(-c2ccccc2)c(-c2ccccc2)s1 [compound 109]
  % Activity: ++ (“++” means between 25% to 100%)
  EC50: < 10 µM

## CC(C)CC(=O)Nc1nc(-c2ccccc2)c(-c2ccccc2)s1 [compound 110]
  % Activity: +++ (“+++” means >100%)
  EC50: < 10 µM

## O=C(Nc1nc(-c2ccccc2)c(-c2ccccc2)s1)C1CC1 [compound 111]
  % Activity: +++ (“+++” means >100%)
  EC50: < 10 µM

## CC(C)(C)C(=O)Nc1nc(-c2ccccc2)c(-c2ccccc2)s1 [compound 112]
  % Activity: ++ (“++” means between 25% to 100%)
  EC50: < 10 µM

## O=C(Nc1nc(-c2ccccc2)c(-c2ccccc2)s1)C1CCCC1 [compound 113]
  % Activity: ++ (“++” means between 25% to 100%)
  EC50: < 10 µM

## O=C(Nc1nc(-c2ccccc2)c(-c2ccccc2)s1)C1CCCCC1 [compound 114]
  % Activity: ++ (“++” means between 25% to 100%)
  EC50: < 10 µM

## O=C(Nc1nc(-c2ccccc2)c(-c2ccccc2)s1)C1CCCO1 (stereo not shown) [compound 115]
  % Activity: +++ (“+++” means >100%)
  EC50: < 10 µM

## O=C(Nc1nc(-c2ccccc2)c(-c2ccccc2)s1)C1CCOC1 (stereo not shown) [compound 116]
  % Activity: ++ (“++” means between 25% to 100%)
  EC50: < 10 µM

## O=C(Nc1ncc(Cc2ccc(Cl)cc2)s1)C(c1ccccc1)C1CCCCC1 (stereo not shown) [compound 117]
  % Activity: +++ (“+++” means >100%)
  EC50: < 10 µM

## O=C(Nc1ncc(Cc2ccc(Cl)cc2)s1)C(c1ccc(Cl)cc1)c1ccc(Cl)cc1 [compound 118]
  % Activity: ++ (“++” means between 25% to 100%)
  EC50: < 10 µM

## CC(C(=O)Nc1ncc(Cc2ccc(Cl)cc2)s1)c1ccccc1 (stereo not shown) [compound 119]
  % Activity: +++ (“+++” means >100%)
  EC50: < 10 µM

## CCC(C(=O)Nc1ncc(Cc2ccc(Cl)cc2)s1)c1ccccc1 (stereo not shown) [compound 120]
  % Activity: ++ (“++” means between 25% to 100%)
  EC50: < 10 µM

## CCC(C)C(C(=O)Nc1ncc(Cc2ccc(Cl)cc2)s1)c1ccccc1 (stereo not shown) [compound 121]
  % Activity: +++ (“+++” means >100%)
  EC50: < 10 µM

## O=C(Nc1ncc(Cc2ccc(Cl)cc2)s1)C(c1ccccc1)C1CCCC1 (stereo not shown) [compound 122]
  % Activity: +++ (“+++” means >100%)
  EC50: < 10 µM

## CC(C)C(C(=O)Nc1ncc(Cc2ccc(Cl)cc2)s1)c1ccccc1 (stereo not shown) [compound 123]
  % Activity: +++ (“+++” means >100%)
  EC50: < 10 µM

## O=C(Nc1ncc(Cc2cccc(Cl)c2)s1)C(c1ccccc1)c1ccccc1 [compound 124]
  % Activity: ++ (“++” means between 25% to 100%)
  EC50: < 10 µM

## O=C(Nc1ncc(Cc2cccc(Cl)c2)s1)C(c1ccc(Cl)cc1)c1ccc(Cl)cc1 [compound 125]
  % Activity: ++ (“++” means between 25% to 100%)
  EC50: < 10 µM

## O=C(Nc1ncc(Cc2cccc(Cl)c2)s1)C1Cc2ccccc21 (stereo not shown) [compound 126]
  % Activity: ++ (“++” means between 25% to 100%)
  EC50: 25 to 60 µM

## CC(C(=O)Nc1ncc(Cc2cccc(Cl)c2)s1)c1ccccc1 (stereo not shown) [compound 127]
  % Activity: ++ (“++” means between 25% to 100%)
  EC50: < 10 µM

## CCC(C(=O)Nc1ncc(Cc2cccc(Cl)c2)s1)c1ccccc1 (stereo not shown) [compound 128]
  % Activity: +++ (“+++” means >100%)
  EC50: < 10 µM

## CCC(C)C(C(=O)Nc1ncc(Cc2cccc(Cl)c2)s1)c1ccccc1 (stereo not shown) [compound 129]
  % Activity: ++ (“++” means between 25% to 100%)
  EC50: < 10 µM

## CC(C)C(C(=O)Nc1ncc(Cc2cccc(Cl)c2)s1)c1ccccc1 (stereo not shown) [compound 130]
  % Activity: +++ (“+++” means >100%)
  EC50: < 10 µM

## O=C(Nc1ncc(Cc2cccc(Cl)c2)s1)C1c2ccccc2Oc2ccccc21 [compound 131]
  % Activity: +++ (“+++” means >100%)
  EC50: < 10 µM

## COc1ccccc1Cc1cnc(NC(=O)C(c2ccccc2)C2CCCCC2)s1 (stereo not shown) [compound 132]
  % Activity: ++ (“++” means between 25% to 100%)
  EC50: < 10 µM

## COc1ccccc1Cc1cnc(NC(=O)C2c3ccccc3-c3ccccc32)s1 [compound 133]
  % Activity: ++ (“++” means between 25% to 100%)
  EC50: < 10 µM

## COc1ccccc1Cc1cnc(NC(=O)C(c2ccc(Cl)cc2)c2ccc(Cl)cc2)s1 [compound 134]
  % Activity: ++ (“++” means between 25% to 100%)
  EC50: < 10 µM

## COc1ccccc1Cc1cnc(NC(=O)C(C)c2ccccc2)s1 (stereo not shown) [compound 135]
  % Activity: ++ (“++” means between 25% to 100%)
  EC50: < 10 µM

## CCC(C(=O)Nc1ncc(Cc2ccccc2OC)s1)c1ccccc1 (stereo not shown) [compound 136]
  % Activity: ++ (“++” means between 25% to 100%)
  EC50: < 10 µM

## CCC(C)C(C(=O)Nc1ncc(Cc2ccccc2OC)s1)c1ccccc1 (stereo not shown) [compound 137]
  % Activity: ++ (“++” means between 25% to 100%)
  EC50: < 10 µM

## COc1ccccc1Cc1cnc(NC(=O)C(c2ccccc2)C(C)C)s1 (stereo not shown) [compound 138]
  % Activity: ++ (“++” means between 25% to 100%)
  EC50: < 10 µM
